Reference: patent US8097615B2, “Neurofibrillary labels” (Wista Laboratories Ltd., priority 2001, dated 2012)

Tested on: tau-tau binding
Assay: Solid-phase tau-tau binding assay, tau Preparation 1 (WO96/30766)
Type: biochemical, human
Source text: This point was further examined by studying the potency of typical aggregated tau ligands as tau-aggregation inhibitors. It has been shown previously that tau aggregation inhibitors (e.g. diaminophenothiazines) can be identified on the basis of inhibition of tau-tau binding in a solid-phase assay (WO 96/30766). […] Thus, although these compounds are potent ligands for tau within the PHF-core, they are at most weak inhibitors at the site required for inhibition of tau-tau binding.
Large-scale purification (1 liter bacterial culture) of tau fragments was carried out as described by Goedert and Jakes (1990, EMBO J., 9, 4225-4230), with minor modifications. Cells were disrupted by rapid freezing of the cell pellet in liquid nitrogen. The pellets were then suspended in buffer containing 50 mM PIPES, 1 mM dithiothreitol (DTT) (pH 6.8). The thermostable proteins in the supernatant were dialysed against PIPES/DTT, then applied to a column containing phosphocellulose equilibrated in the same buffer. […] Fractions were analysed by SDS-PAGE and both Coomassie staining and immunoblotting. […] Protein concentrations were measured by the Lowry method (Harrington C R (1990), “Lowry protein assay containing sodium dodecyl sulphate in microtitre plates for protein determinations on fractions from brain tissue”, Analytical Biochemistry 186: 285-287).

inhibition of tau-tau binding: weak inhibitors of tau-tau binding
Compound: Cc1ccc2sc(-c3ccc4sc(-c5ccc(N)cc5)nc4c3)nc2c1S(=O)(=O)[O-].[Na+] [primulin]
